Data as given in the CheMixHub ionic liquid set.
Several values for one entry are separate records, joined by “and”; a condition that tells them apart may be missing. Identical values can stand only once. ± gives the uncertainty stated by the source.

Assay: xn = mol fraction of the nth substance listed

CCCCCCCCCCCC[N+](CC)(CC)CC.O=S(=O)([N-]S(=O)(=O)C(F)(F)F)C(F)(F)F + O
viscosity (293.25 K, 101 kPa, x2 = 0.1247): 157.4 ± 3.9 mPa·s | viscosity (298.05 K, 101 kPa, x2 = 0.1247): 130.7 ± 3.1 mPa·s

CCCCCCCCCCCC[N+]1(C)CCCCC1.O=C([O-])c1ccccc1O + O
electrical conductivity (298.15 K, 100 kPa, x1 = 3.55e-06): 0.00167 ± 0.00087 S/m | electrical conductivity (298.15 K, 100 kPa, x1 = 2.712e-05): 0.0079 ± 0.0027 S/m | electrical conductivity (328.15 K, 100 kPa, x1 = 8.89e-06): 0.0063 ± 0.0046 S/m

CCCCCCCC[n+]1ccccc1.F[B-](F)(F)F + O
viscosity (288.15 K, 101.3 kPa, x2 = 0): 447 ± 34 mPa·s | viscosity (288.15 K, 101.3 kPa, x2 = 0.1): 289 ± 17 mPa·s | viscosity (288.15 K, 101.3 kPa, x2 = 0.184): 192.6 ± 9 mPa·s | viscosity (288.15 K, 101.3 kPa, x2 = 0.324): 121.3 ± 3.9 mPa·s | viscosity (288.15 K, 101.3 kPa, x2 = 0.477): 89 ± 2 mPa·s | viscosity (288.15 K, 101.3 kPa, x2 = 0.67): 50.65 ± 0.78 mPa·s | viscosity (288.15 K, 101.3 kPa, x2 = 0.758): 37.8 ± 0.8 mPa·s | viscosity (293.15 K, 101.3 kPa, x2 = 0.1): 213 ± 11 mPa·s | viscosity (293.15 K, 101.3 kPa, x2 = 0.184): 145.6 ± 5.5 mPa·s | viscosity (293.15 K, 101.3 kPa, x2 = 0.324): 94.1 ± 2.2 mPa·s | viscosity (298.15 K, 101.3 kPa, x2 = 0.67): 32.69 ± 0.7 mPa·s | viscosity (298.15 K, 101.3 kPa, x2 = 0.758): 23.24 ± 0.65 mPa·s | viscosity (308.15 K, 101.3 kPa, x2 = 0): 134.8 ± 4.7 mPa·s | viscosity (308.15 K, 101.3 kPa, x2 = 0.783): 15.11 ± 0.62 mPa·s | viscosity (313.15 K, 101.3 kPa, x2 = 0.562): 19.43 ± 0.63 mPa·s | viscosity (313.15 K, 101.3 kPa, x2 = 0.67): 18.67 ± 0.63 mPa·s | viscosity (318.15 K, 101.3 kPa, x2 = 0): 81.6 ± 1.6 mPa·s | viscosity (318.15 K, 101.3 kPa, x2 = 0.324): 32.19 ± 0.68 mPa·s | viscosity (323.15 K, 101.3 kPa, x2 = 0.324): 27.26 ± 0.66 mPa·s | viscosity (328.15 K, 101.3 kPa, x2 = 0.1): 38.44 ± 0.72 mPa·s | viscosity (328.15 K, 101.3 kPa, x2 = 0.184): 30.98 ± 0.67 mPa·s | viscosity (328.15 K, 101.3 kPa, x2 = 0.758): 8.61 ± 0.6 mPa·s | viscosity (333.15 K, 101.3 kPa, x2 = 0): 45.28 ± 0.75 mPa·s | viscosity (333.15 K, 101.3 kPa, x2 = 0.1): 32.1 ± 0.68 mPa·s | viscosity (333.15 K, 101.3 kPa, x2 = 0.184): 26.18 ± 0.65 mPa·s | viscosity (333.15 K, 101.3 kPa, x2 = 0.758): 7.63 ± 0.6 mPa·s | viscosity (338.15 K, 101.3 kPa, x2 = 0.67): 9.23 ± 0.61 mPa·s | viscosity (343.15 K, 101.3 kPa, x2 = 0.324): 15.05 ± 0.62 mPa·s | viscosity (343.15 K, 101.3 kPa, x2 = 0.67): 7.99 ± 0.6 mPa·s | viscosity (348.15 K, 101.3 kPa, x2 = 0): 27.77 ± 0.65 mPa·s | viscosity (348.15 K, 101.3 kPa, x2 = 0.477): 10.05 ± 0.61 mPa·s

CC[NH3+].O=[N+]([O-])[O-] + O
viscosity (288.15 K, 101.33 kPa, x2 = 0.574): 5.43 ± 0.12 mPa·s and 7.928 ± 0.084 mPa·s | viscosity (293.15 K, 100 kPa, x2 = 0.1088): 20.97 ± 0.47 mPa·s | viscosity (293.15 K, 100 kPa, x2 = 0.3682): 7.63 ± 0.17 mPa·s | viscosity (293.15 K, 100 kPa, x2 = 0.47): 6.34 ± 0.14 mPa·s | viscosity (293.15 K, 100 kPa, x2 = 0.579): 5.03 ± 0.12 mPa·s | viscosity (293.15 K, 101.33 kPa, x2 = 0.574): 4.86 ± 0.1 mPa·s and 7.175 ± 0.075 mPa·s | viscosity (298 K, 101 kPa, x2 = 0.7): 3.42 ± 0.08 mPa·s | viscosity (298 K, 101 kPa, x2 = 0.95): 1.15 ± 0.03 mPa·s | viscosity (298.15 K, 100 kPa, x2 = 0.7889): 2.16 ± 0.06 mPa·s | viscosity (298.15 K, 100 kPa, x2 = 0.8895): 1.48 ± 0.05 mPa·s | viscosity (298.15 K, 101.33 kPa, x2 = 0.574): 4.415 ± 0.095 mPa·s and 6.559 ± 0.068 mPa·s | viscosity (303.15 K, 100 kPa, x2 = 0.1088): 15.74 ± 0.36 mPa·s | viscosity (303.15 K, 100 kPa, x2 = 0.2597): 7.78 ± 0.18 mPa·s | viscosity (303.15 K, 100 kPa, x2 = 0.7889): 1.95 ± 0.06 mPa·s | viscosity (303.15 K, 100 kPa, x2 = 0.8895): 1.34 ± 0.05 mPa·s | viscosity (303.15 K, 101.33 kPa, x2 = 0.574): 3.953 ± 0.085 mPa·s and 5.989 ± 0.062 mPa·s | viscosity (308.15 K, 100 kPa, x2 = 0.1088): 13.76 ± 0.31 mPa·s | viscosity (308.15 K, 100 kPa, x2 = 0.47): 4.52 ± 0.11 mPa·s | viscosity (308.15 K, 101.33 kPa, x2 = 0.574): 3.571 ± 0.077 mPa·s and 5.567 ± 0.056 mPa·s | viscosity (313.15 K, 100 kPa, x2 = 0): 22.67 ± 0.51 mPa·s | viscosity (313.15 K, 100 kPa, x2 = 0.579): 3.26 ± 0.08 mPa·s | viscosity (313.15 K, 101.33 kPa, x2 = 0.574): 3.247 ± 0.07 mPa·s and 5.268 ± 0.054 mPa·s | viscosity (318.15 K, 100 kPa, x2 = 0.47): 3.71 ± 0.09 mPa·s | viscosity (318.15 K, 100 kPa, x2 = 0.7889): 1.49 ± 0.05 mPa·s | viscosity (318.15 K, 101.33 kPa, x2 = 0.574): 2.96 ± 0.064 mPa·s and 4.826 ± 0.05 mPa·s | viscosity (323.15 K, 101.33 kPa, x2 = 0.574): 2.709 ± 0.058 mPa·s and 4.535 ± 0.047 mPa·s | viscosity (328.15 K, 101.33 kPa, x2 = 0.574): 2.479 ± 0.054 mPa·s and 4.213 ± 0.043 mPa·s | viscosity (333.15 K, 101.33 kPa, x2 = 0.574): 2.281 ± 0.049 mPa·s and 4.065 ± 0.041 mPa·s | viscosity (338.15 K, 101.33 kPa, x2 = 0.574): 2.102 ± 0.046 mPa·s and 3.912 ± 0.04 mPa·s | viscosity (343.15 K, 101.33 kPa, x2 = 0.574): 1.945 ± 0.042 mPa·s

CC[n+]1ccn(C)c1.N#C[S-] + O
viscosity (288.15 K, 100 kPa, x2 = 0.9443): 1.96 ± 0.02 mPa·s | viscosity (293.15 K, 100 kPa, x2 = 0.1006): 22.55 ± 0.44 mPa·s | viscosity (293.15 K, 100 kPa, x2 = 0.7981): 4.08 ± 0.06 mPa·s | viscosity (293.15 K, 100 kPa, x2 = 0.9105): 2.27 ± 0.03 mPa·s | viscosity (303.15 K, 100 kPa, x2 = 0.1948): 13.75 ± 0.27 mPa·s | viscosity (303.15 K, 100 kPa, x2 = 0.4011): 9.55 ± 0.17 mPa·s | viscosity (303.15 K, 100 kPa, x2 = 0.6887): 4.72 ± 0.07 mPa·s | viscosity (308.15 K, 100 kPa, x2 = 0): 16.39 ± 0.35 mPa·s | viscosity (308.15 K, 100 kPa, x2 = 0.1948): 12.02 ± 0.23 mPa·s | viscosity (308.15 K, 100 kPa, x2 = 0.6043): 5.31 ± 0.08 mPa·s | viscosity (308.15 K, 100 kPa, x2 = 0.6887): 4.19 ± 0.07 mPa·s | viscosity (313.15 K, 100 kPa, x2 = 0.1006): 12.15 ± 0.24 mPa·s | viscosity (313.15 K, 100 kPa, x2 = 0.9105): 1.44 ± 0.02 mPa·s | viscosity (313.15 K, 100 kPa, x2 = 0.9506): 1.07 ± 0.01 mPa·s | viscosity (318.15 K, 100 kPa, x2 = 0): 12.43 ± 0.26 mPa·s | viscosity (318.15 K, 100 kPa, x2 = 0.1948): 9.38 ± 0.18 mPa·s

C[N+](C)(C)CCO.O=C([O-])CO + O
viscosity (293.15 K, 101 kPa, x2 = 0.366): 660 ± 260 mPa·s
